According to US9701707B2, “Methods of synthesizing substituted purine compounds” (Epizyme, Inc., priority 2013, dated 2017):

Tests used:
Type in all cases: physicochemical
[1] = Solution stability in pH buffers
Method: 0.1 mg/ml solutions of Form B were prepared in five buffers, including 0.01N HCl (pH 2), 50 mM sodium citrate (pH 4), 50 mM sodium citrate (pH 6), 50 mM sodium phosphate (pH 8), and 50 mM sodium carbonate (pH 10). Methanol was added as a co-solvent to dissolve Form B in buffers (i.e., 10% (v/v) in pH 2, 4, and 6 buffers, 20% (v/v) in pH 8 buffer, and 30% (v/v) in pH 10 buffer). Each buffer solution containing Form B was stored at 3 different temperatures: 25° C., 37° C., and 50° C. Aliquots were taken for HPLC analysis after 1 day and 7 days. pH values were also measured before and after the stability experiments.
(§1) Preparation of pH Buffers • pH 2: 0.01N HCl solution. Dilute 1 ml of 1 N HCl with H2O up to a total volume of 100 ml. Measure the pH and precisely adjust to pH=2.00 using a few microliters of 1N HCl or 1N NaOH. • pH 4: 50 mM Na citrate buffer. Prepare a 50 mM citric acid solution by diluting 10 ml of 1N citric acid with H2O up to a total volume of 200 ml. Slowly add solid NaOH under stirring to increase the pH to 3.8-4.0 and use a few microliters of 1N NaOH for final adjustment to pH 4.00. • pH 6: 50 mM Na citrate buffer. Use the same procedure as the pH 4 buffer and adjust to pH=6.00 • pH 8: 50 mM Na phosphate buffer. Prepare a 50 mM NaH2PO4 solution by dissolving 6.00 g NaH2PO4 in 1 L of H2O and a 50 mM Na2HPO4 solution by dissolving 7.10 g in 1 L of H2O. Mix 10 ml of the NaH2PO4 solution with 140 ml of the Na2HPO4 solution in a beaker. Adjust to pH 8.00 by addition of small amounts of 50 mM NaH2PO4 or Na2HPO4 solution. • pH 10: 50 mM Na carbonate buffer. Prepare a 50 mM carbonate solution by dissolving 840 mg of sodium bicarbonate (NaHCO3) in about 180 ml of H2O. Slowly adjust the pH to 10.0±0.1 by addition of 1N NaOH. Add water to reach the total volume of 200 ml and adjust to pH 10.00 with 1N NaOH.

[2] = Dynamic vapor sorption (DVS) hygroscopicity; conditions: between 0% and 95% RH, 25° C.
Method: Form A may be observed EP-1. […] (peak temperature) which is accompanied by 5.9 wt % weight loss up to ˜150° C. in the TGA curve (FIG. 3). […] Form A is hygroscopic as indicated by water adsorption of 5.8 wt % at 80% RH measured by dynamic vapor sorption (DVS) (FIG. 4). A solid is considered moderately hygroscopic when water uptake at 25° C./80% RH is between 2-15 wt % based on criteria of European Pharmacopeia.
Form B of EP-1 trihydrate (x is 3) is a trihydrate as confirmed by single crystal analysis. The experimental XRPD pattern of Form B matches well with the simulated one from single crystal data (FIG. 6). This was also confirmed by DSC and TGA data (FIG. 7 and FIG. 8, respectively). DSC data indicates Form B dehydrates at ˜132° C. […] Form B is slightly hygroscopic as evidenced by a weight change of ˜0.3% between 0% and 95% RH (FIG. 9), (data collection was programmed from 95% RH-0% RH-95% RH at a step size of 10% RH at 25° C.).

[3] = Equilibrium solubility in aqueous media; conditions: for Solubility: LOD 0.1 μg/ml
Method: Approximately 10 mg of Form B was weighed into a 1-ml glass vial followed by addition of 0.5 ml relevant media. Each sample was continuously stirred using a magnetic stir bar at 25° C. for 24 h. The suspension was then filtered using a nylon membrane with a pore diameter of 0.22 μm. The filtrates were diluted for HPLC analysis and final pH was measured. The solid residue of each sample was collected for XRPD analysis.
The solubilities of Form B in water and five different pH values at 25° C. were determined by HPLC after 24 h equilibration. Solubility data for Form B was obtained across the physiological pH by using buffer solutions from pH 2 to pH 10.
as §1

[4] = pH 2, 25° C., 24 h, measured pH 2.1
[5] = pH 2, 25° C., 7 days, measured pH 2.1
[6] = pH 2, 37° C., 24 h, measured pH 2.1
[7] = pH 2, 37° C., 7 days, measured pH 2.1
[8] = pH 2, 50° C., 24 h, measured pH 2.1
[9] = pH 2, 50° C., 7 days, measured pH 2.1
[10] = pH 4, 25° C., 24 h, measured pH 4.2
[11] = pH 4, 25° C., 7 days, measured pH 4.2
[12] = pH 4, 37° C., 24 h, measured pH 4.1
[13] = pH 4, 37° C., 7 days, measured pH 4.1
[14] = pH 4, 50° C., 24 h, measured pH 4.1
[15] = pH 4, 50° C., 7 days, measured pH 4.2
[16] = pH 6, 25° C., 24 h, measured pH 6.2
[17] = pH 6, 25° C., 7 days, measured pH 6.2
[18] = pH 6, 37° C., 24 h, measured pH 6.2
[19] = pH 6, 37° C., 7 days, measured pH 6.3
[20] = pH 6, 50° C., 24 h, measured pH 6.2
[21] = pH 6, 50° C., 7 days, measured pH 6.2
[22] = pH 8, 25° C., 24 h, measured pH 8.2
[23] = pH 8, 25° C., 7 days, measured pH 8.2
[24] = pH 8, 37° C., 24 h, measured pH 8.2
[25] = pH 8, 37° C., 7 days, measured pH 8.3
[26] = pH 8, 50° C., 24 h, measured pH 8.3
[27] = pH 8, 50° C., 7 days, measured pH 8.3
[28] = pH 10, 25° C., 24 h, measured pH 10.9
[29] = pH 10, 25° C., 7 days, measured pH 10.9
[30] = pH 10, 37° C., 24 h, measured pH 10.9
[31] = pH 10, 37° C., 7 days, measured pH 10.9
[32] = pH 10, 50° C., 24 h, measured pH 11.0
[33] = pH 10, 50° C., 7 days, measured pH 10.9

## CC(C)N(C[C@H]1O[C@@H](n2cnc3c(N)ncnc32)[C@H](O)[C@@H]1O)[C@H]1C[C@@H](CCc2nc3cc(C(C)(C)C)ccc3[nH]2)C1 [Form B, (2R,3R,4S,5R)-2-(6-amino-9H-purin-9-yl)-5-((((1r,3S)-3-(2-(5-(tert-butyl)-1H-benzo[d]imidazol-2-yl)ethyl)cyclobutyl)(isopropyl)amino)methyl)tetrahydrofuran-3,4-diol trihydrate]
[1]; [4]
  % area (100% − TRS%): 98.7%
  % claim (Cs/Ci × 100%): 97.1%
[1]; [5]
  % area (100% − TRS%): 98.5%
  % claim (Cs/Ci × 100%): 99.1%
[1]; [6]
  % area (100% − TRS%): 98.7%
  % claim (Cs/Ci × 100%): 96.8%
[1]; [7]
  % area (100% − TRS%): 98.4%
  % claim (Cs/Ci × 100%): 97.5%
[1]; [8]
  % area (100% − TRS%): 98.3%
  % claim (Cs/Ci × 100%): 97.0%
[1]; [9]
  % area (100% − TRS%): 98.4%
  % claim (Cs/Ci × 100%): 97.0%
[1]; pH 2 to 10 buffers, 25° C., 37° C., 50° C., up to 7 days
  degradation in solution: less than 5%
[1]; [10]
  % area (100% − TRS%): 99.4%
  % claim (Cs/Ci × 100%): 97.4%
[1]; [11]
  % area (100% − TRS%): 99.6%
  % claim (Cs/Ci × 100%): 100.2%
[1]; [12]
  % area (100% − TRS%): 99.4%
  % claim (Cs/Ci × 100%): 97.6%
[1]; [13]
  % area (100% − TRS%): 99.5%
  % claim (Cs/Ci × 100%): 99.0%
[1]; [14]
  % area (100% − TRS%): 99.4%
  % claim (Cs/Ci × 100%): 97.6%
[1]; [15]
  % area (100% − TRS%): 99.5%
  % claim (Cs/Ci × 100%): 98.7%
[1]; [16]
  % area (100% − TRS%): 99.2%
  % claim (Cs/Ci × 100%): 98.0%
[1]; [17]
  % area (100% − TRS%): 99.5%
  % claim (Cs/Ci × 100%): 100.0%
[1]; [18]
  % area (100% − TRS%): 99.3%
  % claim (Cs/Ci × 100%): 97.9%
[1]; [19]
  % area (100% − TRS%): 99.4%
  % claim (Cs/Ci × 100%): 99.0%
[1]; [20]
  % area (100% − TRS%): 99.3%
  % claim (Cs/Ci × 100%): 98.1%
[1]; [21]
  % area (100% − TRS%): 99.5%
  % claim (Cs/Ci × 100%): 98.9%
[1]; [22]
  % area (100% − TRS%): 99.2%
  % claim (Cs/Ci × 100%): 98.0%
[1]; [23]
  % area (100% − TRS%): 99.5%
  % claim (Cs/Ci × 100%): 99.8%
[1]; [24]
  % area (100% − TRS%): 99.5%
  % claim (Cs/Ci × 100%): 98.4%
[1]; [25]
  % area (100% − TRS%): 99.5%
  % claim (Cs/Ci × 100%): 99.3%
[1]; [26]
  % area (100% − TRS%): 99.5%
  % claim (Cs/Ci × 100%): 98.0%
[1]; [27]
  % area (100% − TRS%): 99.5%
  % claim (Cs/Ci × 100%): 98.8%
[1]; [28]
  % area (100% − TRS%): 99.4%
  % claim (Cs/Ci × 100%): 98.0%
[1]; [29]
  % area (100% − TRS%): 99.4%
  % claim (Cs/Ci × 100%): 99.7%
[1]; [30]
  % area (100% − TRS%): 99.4%
  % claim (Cs/Ci × 100%): 98.2%
[1]; [31]
  % area (100% − TRS%): 99.4%
  % claim (Cs/Ci × 100%): 99.0%
[1]; [32]
  % area (100% − TRS%): 99.5%
  % claim (Cs/Ci × 100%): 97.9%
[1]; [33]
  % area (100% − TRS%): 99.4%
  % claim (Cs/Ci × 100%): 98.9%
[2]
  weight change: ~0.3%
[3]; 50 mM Na carbonate buffer, pH (initial) 10.0, pH (final) 10.0, RT, 24 h
  Solubility: <LOD
[3]; 50 mM Na phosphate buffer, pH (initial) 8.0, pH (final) 8.0, RT, 24 h
  Solubility: <LOD^§
[3]; 50 mM sodium citrate buffer, 25 °C, pH 6, aqueous buffer, thermodynamic from solid, 50 mM sodium citrate, pH (initial) 6.0, pH (final) 6.0, RT
  solubility at 24 h: 80 µg/mL
[3]; Water, RT, 24 h, XRPD
  Remaining Solid: Form B
